The target in series [1] is T1, MBP-MshC (Mycobacterium tuberculosis, UniProt P9WJM9). The experiment in a line: Confirmatory assay: CGI production by fluorescence-detected HPLC. Format: biochemical.
For series [2], the target named is T1, MBP-MshC. In words: MshC coupled luminescent assay. Format: biochemical.
For series [3], the target named is T1, MBP-MshC. In words: Isothermal titration calorimetry with MBP-MshC. Format: binding. For orientation: Isothermal titration calorimetry measures the heat released or taken up as one component is titrated into another.
The target in series [4] is T1, MBP-MshC. The experiment in a line: Mode of inhibition of dequalinium. The format is biochemical.
For a further series, the target named is MBP (Escherichia coli, UniProt P0AEX9). In words: Isothermal titration calorimetry with MBP tag alone. Format: binding. The conditions noted are these: ITC, 1-site model, 25 °C.
For a further series, the system named is N[C@@H](CS)C(=O)O. The experiment in a line: purified protein, by the assay type.
[5] abbreviates: IC50, quantitative CGI-HPLC confirmatory assay.

What is called IC50 is the point on the concentration scale where inhibition reaches its midpoint. Usually Kd stands for a measure of binding affinity in units of concentration. One may read the Km as the substrate concentration at which the rate is half of its maximum. By Vmax is commonly meant the top rate of the reaction or transport when substrate is in excess.

Several values for one entry are separate records, joined by “and”; a condition that tells them apart may be missing. Equal entries are not always repeated.

T1 sequence (P9WJM9 whole entry, looked up): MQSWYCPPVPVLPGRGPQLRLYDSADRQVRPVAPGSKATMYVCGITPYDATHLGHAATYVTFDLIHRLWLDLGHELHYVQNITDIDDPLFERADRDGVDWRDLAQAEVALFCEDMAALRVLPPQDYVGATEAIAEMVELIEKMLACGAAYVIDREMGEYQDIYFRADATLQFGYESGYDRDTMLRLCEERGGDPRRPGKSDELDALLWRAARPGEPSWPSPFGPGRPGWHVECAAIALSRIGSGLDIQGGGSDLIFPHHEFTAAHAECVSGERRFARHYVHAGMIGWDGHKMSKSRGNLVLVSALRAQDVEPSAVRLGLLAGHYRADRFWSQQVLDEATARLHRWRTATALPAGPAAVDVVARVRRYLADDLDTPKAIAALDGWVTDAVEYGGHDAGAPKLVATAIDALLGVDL

`Cc1cc(N)c2ccccc2[n+]1C` [1a, 1-methyl 4-aminoquinaldinium iodide] showed an IC50 at MBP-MshC [1] (setting [5]) of 830 µM.

`Nc1ncnc2c1ncn2[C@@H]1O[C@H](COS(=O)(=O)NC(=O)[C@@H](N)CS)[C@@H](O)[C@H]1O` [CysSA, 5′-O-[N-(L-cysteinyl)sulfamoyl] adenosine]: the IC50 against MBP-MshC [2] worked out at 0.24 ± 0.001 µM.

As to `Cc1cc(N)c2ccccc2[n+]1CCCCCCCCCC[n+]1c(C)cc(N)c2ccccc21` [compound 1, dequalinium chloride], the Kd at MBP-MshC [3] is 7.1 ± 0.8 µM; at MBP it was 8.5 µM and 7 to 8.5 µM. Further, the values for the mode of inhibition result on MBP-MshC [4] (with respect to ATP (varied 31.3 to 4000 μM)) and at MBP-MshC [4] (with respect to GI (varied 34-1100 μM)) were “AT P-competitive inhibitor” and “synergy”, respectively. The 50% inhibitory concentration (IC50) at MBP-MshC [1] (setting [5]) is 24 µM and ~24 µM.

As to `C[n+]1ccc(Nc2ccc(NC(=O)c3ccc(Nc4cc[n+](C)c5ccc([N+](=O)[O-])cc45)cc3[N+](=O)[O-])cc2)cc1` [compound 2], on MBP-MshC [1] (quantitative CGI-HPLC confirmatory assay), the concentration for half-maximal inhibition (IC50) is about 500 µM.

Turning to “MBP-MshC (Mycobacterium tuberculosis H37Rv)”, in the series with N[C@@H](CS)C(=O)O, the Km turned out to be 140 ± 40 µM and the Vmax amounted to 85 ± 7 nmol/min/mg.

These data come from paper PMC2796824 (Journal of biomolecular screening, 2009).
